Values of other authors as cited in patent publication US20240226070A1, “URAT1 INHIBITOR, PHARMACEUTICAL COMPOSITIONS AND USES THEREOF” (UR-1 Therapeutics, Inc., priority 2021, published 2024).

What was measured:
[1] = system: 5/6 Nx rats; settings: for effect on aggravation of CKD by hyperuricemia: 5/6 Nx rats dosed with potassium oxonate (750 mg/kg BW)
[2] = molecular target: T1, OAT3 (Homo sapiens, UniProt Q8TCC7); settings: in vitro
T1 sequence (Q8TCC7 1-542): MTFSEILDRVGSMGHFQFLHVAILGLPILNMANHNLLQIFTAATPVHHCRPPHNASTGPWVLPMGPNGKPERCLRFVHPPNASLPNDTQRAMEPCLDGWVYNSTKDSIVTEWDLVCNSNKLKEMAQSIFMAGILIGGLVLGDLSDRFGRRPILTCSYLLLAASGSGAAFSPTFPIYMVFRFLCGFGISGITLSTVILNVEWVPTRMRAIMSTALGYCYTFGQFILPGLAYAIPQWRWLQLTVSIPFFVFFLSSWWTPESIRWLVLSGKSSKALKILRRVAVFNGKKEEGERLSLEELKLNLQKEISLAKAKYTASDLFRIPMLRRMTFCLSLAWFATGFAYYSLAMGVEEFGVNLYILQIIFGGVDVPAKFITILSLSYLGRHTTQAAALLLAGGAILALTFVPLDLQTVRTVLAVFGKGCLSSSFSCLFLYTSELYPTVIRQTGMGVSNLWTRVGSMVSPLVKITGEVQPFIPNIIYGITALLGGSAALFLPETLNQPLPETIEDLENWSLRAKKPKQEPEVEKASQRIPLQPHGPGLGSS

[3] = molecular target: T2, OAT1 (Homo sapiens, UniProt Q4U2R8); settings: in vitro
T2 sequence (Q4U2R8 1-563): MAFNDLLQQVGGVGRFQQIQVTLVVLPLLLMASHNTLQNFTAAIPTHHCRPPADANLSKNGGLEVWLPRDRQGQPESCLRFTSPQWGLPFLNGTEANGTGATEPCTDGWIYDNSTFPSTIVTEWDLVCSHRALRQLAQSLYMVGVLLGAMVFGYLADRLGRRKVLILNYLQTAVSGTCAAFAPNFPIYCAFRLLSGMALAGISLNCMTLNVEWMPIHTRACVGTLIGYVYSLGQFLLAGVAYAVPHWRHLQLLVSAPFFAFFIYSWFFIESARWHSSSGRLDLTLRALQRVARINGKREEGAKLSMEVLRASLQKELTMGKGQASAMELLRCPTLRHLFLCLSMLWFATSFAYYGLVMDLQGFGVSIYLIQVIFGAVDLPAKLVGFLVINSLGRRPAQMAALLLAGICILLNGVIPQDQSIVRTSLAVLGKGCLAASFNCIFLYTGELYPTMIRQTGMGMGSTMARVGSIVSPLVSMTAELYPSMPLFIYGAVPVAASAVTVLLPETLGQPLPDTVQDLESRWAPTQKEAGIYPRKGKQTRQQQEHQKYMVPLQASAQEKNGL

[4] = oral administration, 1.3 mg/kg
[5] = molecular target: T3, ATP-binding cassette subfamily G member 2 (ABCG2) (Homo sapiens, UniProt Q9UNQ0); settings: in vitro
T3 sequence (Q9UNQ0 1-655): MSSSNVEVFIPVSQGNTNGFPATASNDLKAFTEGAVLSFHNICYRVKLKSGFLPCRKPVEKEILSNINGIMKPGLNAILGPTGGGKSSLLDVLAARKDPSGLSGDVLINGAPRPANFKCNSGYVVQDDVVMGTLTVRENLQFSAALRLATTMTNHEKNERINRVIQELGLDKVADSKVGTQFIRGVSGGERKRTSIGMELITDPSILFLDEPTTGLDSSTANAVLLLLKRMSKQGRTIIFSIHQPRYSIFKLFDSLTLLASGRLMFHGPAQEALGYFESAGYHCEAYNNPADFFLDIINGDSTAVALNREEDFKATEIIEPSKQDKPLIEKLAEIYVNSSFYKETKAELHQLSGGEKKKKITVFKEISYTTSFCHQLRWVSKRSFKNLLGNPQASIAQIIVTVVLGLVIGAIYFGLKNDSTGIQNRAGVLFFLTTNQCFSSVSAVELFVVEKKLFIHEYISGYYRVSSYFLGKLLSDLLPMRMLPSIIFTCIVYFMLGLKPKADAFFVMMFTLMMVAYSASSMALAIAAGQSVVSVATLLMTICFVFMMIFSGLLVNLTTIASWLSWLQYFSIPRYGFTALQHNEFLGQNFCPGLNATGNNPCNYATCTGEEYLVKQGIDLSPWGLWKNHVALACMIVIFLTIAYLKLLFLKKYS

IC50 [2] [µM] | IC50 [3] [µM] | Cmax [4] [ng/mL] | oral bioavailability [4] [%] | plasma clearance ([4]; Sprague-Dawley rats) [mL/min/kg] | terminal elimination half-life (T1/2) ([4]; Sprague-Dawley rats) [h] | IC50 [5] [µM] | Structure (SMILES) | effect on aggravation of CKD by hyperuricemia [1] | nephroprotection ([1]; 5/6 rats that not received oxonic acid)
– | – | – | – | – | – | – | Oc1ncnc2[nH]ncc12 [Allopurinol, allopurinol] | prevented the aggravation of the disease | –
1.32 | 4.08 | 415 | 2.5 | 402.1 | 1.88 | 4.16 | O=C(c1cc(Cl)c(O)c(Cl)c1)N1CS(=O)(=O)c2ccccc21 [Dotinurad, 3-(3,5-dichloro-4-hydroxybenzoyl)-1,1-dioxo-2,3-dihydro-1,3-benzothiazole] | – | –
– | – | – | – | – | – | – | Cc1nc(-c2ccc(OCC(C)C)c(C#N)c2)sc1C(=O)O [Febuxostat, febuxostat] | prevented the aggravation of the disease | significant nephroprotection
